Data reported in patent publication US20240050428A1 (Cullgen (Shanghai), Inc., priority 2020, published 2024).
Where two headings read alike, the source gives them in different places.

What was measured:
[1] = test system: MV4;11 cells; experiment: Cell viability assay (CellTiter-Glo) in MV4;11 cells, alone or with gilteritinib; format: cell-based; settings: Homo sapiens, MV4-11, 72 h, MV4;11 cells, three days, CellTiter-Glo, read-out: MV4
[2] = test system: MOLM-13 cells; experiment: Cell viability assay (CellTiter-Glo) in MOLM-13 cells, alone or with gilteritinib; format: cell-based; settings: Homo sapiens, MOLM-13, 72 h, MOLM-13 cells, three days, CellTiter-Glo
[3] = compound alone (without gilteritinib), 11 IC50
[4] = compound with gilteritinib 10 nM, 11 IC50 gilteritinib
[5] = compound alone (without gilteritinib), read-out: MOLM-13 IC50
[6] = compound with gilteritinib 20 nM, read-out: MOLM-13 IC50 gilteritinib

Structure (SMILES)	IC50 [1, 3]	IC50 [1, 4]	IC50 [2, 5]	IC50 [2, 6]
O=C1CCC(N2C(=O)c3ccc(NCCC[C@H]4C[C@H](n5cc(C6CCOCC6)cn5)C4)cc3C2=O)C(=O)N1 (stereo partly drawn) [GS-433, 2-(2,6-dioxopiperidin-3-yl)-5-((3-(trans-3-(4-(tetrahydro-2H-pyran-4-yl)-1H-pyrazol-1-yl)cyclobutyl)propyl)amino)isoindoline-1,3-dione]	> 1000 nM	> 1000 nM	> 1000 nM	> 1000 nM
Cc1nn([C@H]2C[C@@H](CCCNc3ccc4c(c3)C(=O)N(C3CCC(=O)NC3=O)C4=O)C2)cc1-c1cnc2cc(N3CCNCC3)ccc2n1 (stereo partly drawn) [GS-434, 2-(2,6-dioxopiperidin-3-yl)-5-((3-(cis-3-(3-methyl-4-(6-(piperazin-1-yl)quinoxalin-2-yl)-1H-pyrazol-1-yl)cyclobutyl)propyl)amino)isoindoline-1,3-dione]	< 10 nM	< 10 nM	10 to 100 nM	< 10 nM
CN1CCC(c2cnn([C@H]3C[C@H](CCCNc4ccc5c(c4)C(=O)N(C4CCC(=O)NC4=O)C5=O)C3)c2)CC1 (stereo partly drawn) [GS-435, 2-(2,6-dioxopiperidin-3-yl)-5-((3-(trans-3-(4-(1-methylpiperidin-4-yl)-1H-pyrazol-1-yl)cyclobutyl)propyl)amino)isoindoline-1,3-dione]	100 to 1000 nM	> 1000 nM	> 1000 nM	100 to 1000 nM
CN1CCN(c2nccc(-c3cnn([C@H]4C[C@H](CCCNc5ccc6c(c5)C(=O)N(C5CCC(=O)NC5=O)C6=O)C4)c3)n2)CC1 (stereo partly drawn) [GS-436, 2-(2,6-dioxopiperidin-3-yl)-5-((3-(trans-3-(4-(2-(4-methylpiperazin-1-yl)pyrimidin-4-yl)-1H-pyrazol-1-yl)cyclobutyl)propyl)amino)isoindoline-1,3-dione]	> 1000 nM	100 to 1000 nM	> 1000 nM	100 to 1000 nM
O=C1CCC(N2C(=O)c3ccc(NCCCC4CC(n5cc(N6CCOCC6)cn5)C4)cc3C2=O)C(=O)N1 (stereo not drawn) [GS-437, 2-(2,6-dioxopiperidin-3-yl)-5-((3-(3-(4-morpholino-1H-pyrazol-1-yl)cyclobutyl)propyl)amino)isoindoline-1,3-dione]	> 1000 nM	> 1000 nM	> 1000 nM	100 to 1000 nM
O=C1CCC(N2C(=O)c3ccc(NC[C@H]4C[C@H](n5cc(N6CCOCC6)c(C6CC6)n5)C4)cc3C2=O)C(=O)N1 (stereo partly drawn) [GS-438, 5-(((trans-3-(3-cyclopropyl-4-morpholino-1H-pyrazol-1-yl)cyclobutyl)methyl)amino)-2-(2,6-dioxopiperidin-3-yl)isoindoline-1,3-dione]	> 1000 nM	> 1000 nM	> 1000 nM	100 to 1000 nM
Cc1cccc(-c2cn([C@H]3C[C@H](CNc4ccc5c(c4)C(=O)N(C4CCC(=O)NC4=O)C5=O)C3)nc2C(F)(F)F)n1 (stereo partly drawn) [GS-439, 2-(2,6-dioxopiperidin-3-yl)-5-(((trans-3-(4-(6-methylpyridin-2-yl)-3-(trifluoromethyl)-1H-pyrazol-1-yl)cyclobutyl)methyl)amino)isoindoline-1,3-dione]	100 to 1000 nM	10 to 100 nM	> 1000 nM	10 to 100 nM
CN1CCN(c2cccc(-c3cn([C@H]4C[C@H](CNc5ccc6c(c5)C(=O)N(C5CCC(=O)NC5=O)C6=O)C4)nc3C3CC3)n2)CC1 (stereo partly drawn) [GS-440, 5-(((trans-3-(3-cyclopropyl-4-(6-(4-methylpiperazin-1-yl)pyridin-2-yl)-1H-pyrazol-1-yl)cyclobutyl)methyl)amino)-2-(2,6-dioxopiperidin-3-yl)isoindoline-1,3-dione]	100 to 1000 nM	100 to 1000 nM	100 to 1000 nM	100 to 1000 nM
O=C1CCC(N2C(=O)c3ccc(NC[C@H]4C[C@H](n5cc(-c6cccc(NC7CCOCC7)n6)c(C6CC6)n5)C4)cc3C2=O)C(=O)N1 (stereo partly drawn) [GS-441, 5-(((trans-3-(3-cyclopropyl-4-(6-((tetrahydro-2H-pyran-4-yl)amino)pyridin-2-yl)-1H-pyrazol-1-yl)cyclobutyl)methyl)amino)-2-(2,6-dioxopiperidin-3-yl)isoindoline-1,3-dione]	> 1000 nM	10 to 100 nM	10 to 100 nM	100 to 1000 nM
O=C1CCC(N2C(=O)c3ccc(NC[C@H]4C[C@H](n5nc(C6CC6)c6ccccc65)C4)cc3C2=O)C(=O)N1 (stereo partly drawn) [GS-442, 5-(((trans-3-(3-cyclopropyl-1H-indazol-1-yl)cyclobutyl)methyl)amino)-2-(2,6-dioxopiperidin-3-yl)isoindoline-1,3-dione]	< 10 nM	< 10 nM	10 to 100 nM	< 10 nM
O=C1CCC(N2C(=O)c3ccc(NCCC[C@H]4C[C@H](n5cc(-c6ccc(Cl)cn6)cn5)C4)cc3C2=O)C(=O)N1 (stereo partly drawn) [GS-443, 5-((3-(trans-3-(4-(5-chloropyridin-2-yl)-1H-pyrazol-1-yl)cyclobutyl)propyl)amino)-2-(2,6-dioxopiperidin-3-yl)isoindoline-1,3-dione]	100 to 1000 nM	100 to 1000 nM	< 10 nM	> 1000 nM
Cc1cccc(-c2cn([C@H]3C[C@H](CNc4ccc5c(c4)C(=O)N(C4CCC(=O)NC4=O)C5=O)C3)nc2C(F)F)n1 (stereo partly drawn) [GS-444, 5-(((trans-3-(3-(difluoromethyl)-4-(6-methylpyridin-2-yl)-1H-pyrazol-1-yl)cyclobutyl)methyl)amino)-2-(2,6-dioxopiperidin-3-yl)isoindoline-1,3-dione]	10 to 100 nM	< 10 nM	10 to 100 nM	< 10 nM
O=C1CCC(N2C(=O)c3ccc(NC[C@H]4C[C@H](n5cc(-c6cccc(N[C@H]7CC[C@@H](O)CC7)n6)c(C6CC6)n5)C4)cc3C2=O)C(=O)N1 (stereo partly drawn) [GS-445, 5-(((trans-3-(3-cyclopropyl-4-(6-((cis-4-hydroxycyclohexyl)amino)pyridin-2-yl)-1H-pyrazol-1-yl)cyclobutyl)methyl)amino)-2-(2,6-dioxopiperidin-3-yl)isoindoline-1,3-dione]	100 to 1000 nM	100 to 1000 nM	100 to 1000 nM	100 to 1000 nM
Cc1ccc(-c2cnn([C@H]3C[C@H](CCCNc4ccc5c(c4)C(=O)N(C4CCC(=O)NC4=O)C5=O)C3)c2)nc1 (stereo partly drawn) [GS-446, 2-(2,6-dioxopiperidin-3-yl)-5-((3-(trans-3-(4-(5-methylpyridin-2-yl)-1H-pyrazol-1-yl)cyclobutyl)propyl)amino)isoindoline-1,3-dione]	100 to 1000 nM	10 to 100 nM	> 1000 nM	10 to 100 nM
O=C1CCC(N2C(=O)c3ccc(NCCC[C@H]4C[C@H](n5cc(-c6cccc(C7CC7)n6)cn5)C4)cc3C2=O)C(=O)N1 (stereo partly drawn) [GS-447, 5-((3-(trans-3-(4-(6-cyclopropylpyridin-2-yl)-1H-pyrazol-1-yl)cyclobutyl)propyl)amino)-2-(2,6-dioxopiperidin-3-yl)isoindoline-1,3-dione]	10 to 100 nM	< 10 nM	100 to 1000 nM	10 to 100 nM
O=C1CCC(N2C(=O)c3ccc(NC[C@H]4C[C@H](n5cc(N6CCCCC6)c(C6CC6)n5)C4)cc3C2=O)C(=O)N1 (stereo partly drawn) [GS-448, 5-(((trans-3-(3-cyclopropyl-4-(piperidin-1-yl)-1H-pyrazol-1-yl)cyclobutyl)methyl)amino)-2-(2,6-dioxopiperidin-3-yl)isoindoline-1,3-dione]	100 to 1000 nM	10 to 100 nM	> 1000 nM	100 to 1000 nM
Cc1cccc(-c2cn([C@H]3C[C@H](CNc4ccc5c(c4)C(=O)N(C4CCC(=O)NC4=O)C5=O)C3)nc2C)n1 (stereo partly drawn) [GS-449, 2-(2,6-dioxopiperidin-3-yl)-5-(((trans-3-(3-methyl-4-(6-methylpyridin-2-yl)-1H-pyrazol-1-yl)cyclobutyl)methyl)amino)isoindoline-1,3-dione]	> 1000 nM	> 1000 nM	> 1000 nM	> 1000 nM
O=C1CCC(N2C(=O)c3ccc(NCCCCn4cc(-c5cnc6ccccc6n5)c(C5CC5)n4)cc3C2=O)C(=O)N1 (stereo not drawn) [GS-450, 5-((4-(3-cyclopropyl-4-(quinoxalin-2-yl)-1H-pyrazol-1-yl)butyl)amino)-2-(2,6-dioxopiperidin-3-yl)isoindoline-1,3-dione]	10 to 100 nM	10 to 100 nM	100 to 1000 nM	10 to 100 nM
O=C1CCC(N2C(=O)c3ccc(NCCC[C@H]4C[C@H](n5cc(-c6cccc(N7CCC7)n6)cn5)C4)cc3C2=O)C(=O)N1 (stereo partly drawn) [GS-451, 5-((3-(trans-3-(4-(6-(azetidin-1-yl)pyridin-2-yl)-1H-pyrazol-1-yl)cyclobutyl)propyl)amino)-2-(2,6-dioxopiperidin-3-yl)isoindoline-1,3-dione]	10 to 100 nM	10 to 100 nM	100 to 1000 nM	10 to 100 nM
O=C1CCC(N2C(=O)c3ccc(NC[C@H]4C[C@H](n5cc(N6CCC(O)CC6)c(C6CC6)n5)C4)cc3C2=O)C(=O)N1 (stereo partly drawn) [GS-452, 5-(((trans-3-(3-cyclopropyl-4-(4-hydroxypiperidin-1-yl)-1H-pyrazol-1-yl)cyclobutyl)methyl)amino)-2-(2,6-dioxopiperidin-3-yl)isoindoline-1,3-dione]	> 1000 nM	> 1000 nM	> 1000 nM	> 1000 nM
CC(C)c1cccc(-c2cnn([C@H]3C[C@H](CCCNc4ccc5c(c4)C(=O)N(C4CCC(=O)NC4=O)C5=O)C3)c2)n1 (stereo partly drawn) [GS-453, 2-(2,6-dioxopiperidin-3-yl)-5-((3-(trans-3-(4-(6-isopropylpyridin-2-yl)-1H-pyrazol-1-yl)cyclobutyl)propyl)amino)isoindoline-1,3-dione]	10 to 100 nM	10 to 100 nM	100 to 1000 nM	10 to 100 nM
